“And” between values parts separate entries of the source, which are not always exact repeats. Equal entries are not always repeated.
Assays:
[1] = (§1) DNDI: Cytotoxicity against human MRC-5 lung fibroblast cells.; conditions: IC50
MRC5 = assay: as §1
[2] = tested on: Trypanosoma brucei brucei; assay: microbe, parasite or virus in culture; assay type: functional, organism-based, STIB 795
Description: DNDI: Inhibition of Human African Trypanosomiasis (HAT), STIB 795, in vitro

[3] = DNDI: Cytotoxicity against L-6 rat myoblasts from skeletal muscle.; assay type: toxicity, cell-based, Muscle tissue, L6; conditions: L-6 rat skeletal muscle myoblast cells
Plasmodium falciparum = assay: DNDI: Inhibition of the malaria parasite Plasmodium falciparum, in vitro; assay type: functional, organism-based; conditions: K1
Leishmania donovani = assay: DNDI: Inhibition of formation of Leishmania donovani (strain MHOM/ET/67/L82) axenic amastigotes, in vitro.; assay type: functional, organism-based
[4] = tested on: Trypanosoma brucei rhodesiense; assay: DNDI: Inhibition of Human African Trypanosomiasis (HAT), STIB 900, in vitro; assay type: functional, organism-based
Trypanosoma cruzi = assay: DNDI: Inhibition of Chagas Disease parasite Trypanosoma cruzi (Tulahuen LacZ, Clone C4), in vitro.; assay type: functional, organism-based

Row | SMILES | IC50 [1] | IC50 (MRC5) | IC50 [2] | IC50 ([2]; Trypanosoma brucei, STIB 795) | IC50 [3] | IC50 (Plasmodium falciparum) | IC50 (Leishmania donovani) | IC50 [4] | IC50 (Trypanosoma cruzi)
1 | COc1ccc2[nH]c(C)c(CCNCCC3=C(C)CCCC3(C)C)c2c1 | 5.93 µM | 4.92 µM | 1760 nM | 1330 nM |  |  |  |  | 
2 | O=C(NCCc1n[nH]c(-c2ccc(F)cc2)n1)c1cccc(F)c1 | > 41.7 µM |  |  | 1930 nM | 39.2 µM | 7.85 µM | 15.5 µM | 2220 nM | 6.35 µM
3 | CC(C)(C)C(=O)NCCc1csc(-c2cccc(F)c2)n1 | > 41.7 µM |  |  | 441 nM | 19.1 µM | 10.8 µM | 14.1 µM | 451 nM | 0.709 µM
4 | CC1=NN(c2cccc(Cl)c2)C(=O)/C1=C\NNC(=O)c1ccccc1 | > 4.17 µM | 4.6 µM | 1920 nM | 1490 nM |  |  |  |  | 
5 | CCc1ccccc1/N=C(\NCCN1CCOCC1)NC(=O)c1ccccc1 | > 41.7 µM |  |  | 681 nM | 50.3 µM | 2.02 µM | 83.9 µM | 333 nM | 31.2 µM
6 | Cc1cc(=O)[nH]c(-n2nc(C)cc2NC(=O)C2CCCC2)n1 | > 10.4 µM |  |  | 435 nM | 0.265 µM | 2.39 µM | 0.143 µM | 1420 nM | 4.5 µM
7 | Cc1ccc(-c2cnc3ccccc3[n+]2C)c(C)c1 | > 20.8 µM | > 10.4 µM | 739 nM and 3320 nM |  |  |  |  |  | 
8 | COc1ccc(C(NC(=O)C(C)C)c2ccc3cccnc3c2O)cc1OC (centres undefined) | 2.29 µM | > 4.17 µM | 2780 nM and 1080 nM |  |  |  |  |  | 
9 | Cc1ccc2[nH]c3c(c2c1)CCCC3CN (centres undefined) | > 10.4 µM | > 20.8 µM | 664 nM | 1220 nM |  |  |  |  | 
10 | O=C(CCc1ccccc1)N/N=C/c1ccc(O)c2ncccc12 | > 10.4 µM | > 20.8 µM | 456 nM | 484 nM |  |  |  |  | 
11 | CCS(=O)(=O)N1CCCc2ccc(NS(=O)(=O)c3ccccc3F)cc21 | > 41.7 µM |  |  | 1300 nM | 8.64 µM | 5.02 µM | 2.63 µM | 5810 nM | 5.87 µM
12 | Cc1cccc2cc(-c3ccccc3)c(N3CCNCC3)nc12 | > 4.17 µM |  |  | 1450 nM |  |  |  |  | 

From ChEMBL document CHEMBL2094269, “WEHI/Eskitis Trypanosoma b. brucei screening data”
